Assay results reported in patent publication US20110055943A1, “NOVEL THERAPEUTIC TARGETS IN INFLAMMATORY BOWEL DISEASE” (SALIX PHARMACEUTICALS, LTD., priority 2007, published 2011).

Columns and labels:
[1] = Serum pharmacokinetics of RIF and RIFax in mice (p.o., i.p., i.v.; LC-MS/MS); assay type: in vivo
Experimental: (§1) The maximum concentration in serum (Cmax) was obtained from the original data. […] Intestinal contents were weighted, and homogenized in methanol (100 mg/ml). The homogenate was centrifuged at 14,000 rpm for 10 min at 4° C.
(§2) The mass spectrometer was operated in the turbo ion spray mode with positive ion detection. The turbo ion spray temperature was maintained at 300° C., and a voltage of 4.8 kV was applied to the sprayer needle. N2 was used as the turbo ion spray and nebulizing gas.

[2] = Intestinal tract distribution of RIF and RIFax in mice (intestinal contents, LC-MS/MS); assay type: in vivo; details: mice; for intestinal tract concentration compared with RIF: oral treatment
Experimental: as §1, §2

[3] = tested on: PXR target genes (CYP3A11, GSTA1, MRP2, OATP2); assay: qPCR analysis of PXR target genes in Pxr-null mice; assay type: in vivo
CAR = target: T1, CAR (Mus musculus, UniProt O35627); assay: Cell-based reporter assay, transfected HCT116 cells, dual luciferase; details: 10 μM, 24 h
T1 construct: expressed in transfected cells; host or cells: HCT116
T1 sequence (O35627 1-358): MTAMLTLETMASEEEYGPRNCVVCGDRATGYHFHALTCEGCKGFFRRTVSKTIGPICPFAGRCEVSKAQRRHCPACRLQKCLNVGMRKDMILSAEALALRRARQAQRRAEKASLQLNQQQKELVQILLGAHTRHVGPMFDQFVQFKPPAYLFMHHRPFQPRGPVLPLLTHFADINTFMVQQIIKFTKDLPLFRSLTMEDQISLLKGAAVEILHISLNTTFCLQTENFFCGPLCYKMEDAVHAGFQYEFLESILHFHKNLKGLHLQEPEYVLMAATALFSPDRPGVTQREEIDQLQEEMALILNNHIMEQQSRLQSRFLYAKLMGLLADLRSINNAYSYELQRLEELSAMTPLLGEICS
Experimental: (§3) A hepG2 cell line (DPX2) with stable expression of recombinant human PXR and a PXR-response element cloned in a luciferase vector was obtained from Puracyp Inc. (Carlsbad, Calif.). The construction and validation of the cell lines were reported previously (Yueh et al., 2005). The cells were seeded according to the distributor's instruction. […] The activation of PXR was determined by measuring the firefly luciferase activity 24 h later, followed by normalization of luciferase activity by protein concentrations. For cell-based reporter assay of nuclear receptors CAR, PPARα, PPARγ, and FXR, HCT116 cells were plated on 24-well plates (5×10^4 cells/well, cultured in DMEM containing 10% FBS), and transfected with the various expression vectors using Fugene transfection reagent (Roche, Indianapolis, Ind.). The mouse PPAR and CAR vectors were described in previous reports (Kliewer et al., 1992; Swales et al., 2005). The mouse FXR vector was provided by Dr Christopher J. Sinal. […] TCPOBOP (250 nM), Wy-14,643 (10 μM), rosiglitazone (10 μM), and GW4064 (25 μM) were used as positive controls respectively for mouse CAR, PPARα, PPARγ, and FXR. A standard dual luciferase assay was used and normalized to a cotransfected control reporter (Promega, Madison, Wis.). Each in vitro assay was repeated at least three times.

FXR = target: T2, FXR (Mus musculus, UniProt Q60641); assay: as above; details: 10 μM, 24 h
T2 construct: expressed in transfected cells; host or cells: HCT116
T2 sequence (Q60641 1-488): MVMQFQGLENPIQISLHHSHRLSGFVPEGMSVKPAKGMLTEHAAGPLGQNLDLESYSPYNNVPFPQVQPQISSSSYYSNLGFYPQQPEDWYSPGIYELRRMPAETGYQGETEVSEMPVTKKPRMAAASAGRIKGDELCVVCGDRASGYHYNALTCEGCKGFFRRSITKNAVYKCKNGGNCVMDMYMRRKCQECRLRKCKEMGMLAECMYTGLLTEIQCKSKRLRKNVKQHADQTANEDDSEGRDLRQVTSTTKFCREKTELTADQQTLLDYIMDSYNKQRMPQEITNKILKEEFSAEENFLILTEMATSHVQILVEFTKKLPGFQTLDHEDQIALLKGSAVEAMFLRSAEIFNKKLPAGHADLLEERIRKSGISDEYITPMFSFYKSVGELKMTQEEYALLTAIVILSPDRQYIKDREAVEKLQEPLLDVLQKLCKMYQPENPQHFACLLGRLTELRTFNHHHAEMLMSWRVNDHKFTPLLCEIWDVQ
Experimental: as §3

CYP3A = assay: Pharmacokinetics of MDZ in hPXR mice pretreated with RIFax; details: hPXR mice, RIFax 10 mg/kg/day 3 days, MDZ 2.5 mg/kg oral
Experimental: Blood samples were collected from suborbital veins using heparinized tubes at pre-dose, 5, 10, 20, 30, 60, and 90 min after administration of MDZ. Serum was separated by centrifugation at 8,000 g for 10 min. For MDZ and 1′-OH-MDZ extraction, 50 μl of serum was mixed with 150 μl of phosphate-buffered saline, 200 μl of ethyl acetate, and 200 μl of methyl t-butyl ether. The mixture was centrifuged at 3,000 rpm for 5 min at 4° C. The organic layer was then transferred to a new tube, dried with N2, and reconstituted in 100 μl of 70% aqueous methanol and 30% H2O containing 0.1% formic acid. […] Pharmacokinetic parameters for MDZ and 1′-OH-MDZ were estimated from the plasma concentration-time data by a non-compartmental approach using WinNonlin (Pharsight, Mountain View, Calif.). The area under the serum concentration-time curve (AUC0-90 min) was calculated by the trapezoidal rule. The maximum concentration in serum (Cmax) and its corresponding time (Tmax) were obtained from the original data.

CYP3A4 [4] = details: human hepatocytes; cited from earlier work
CYP3A4 [5] = details: two clinical studies; cited from earlier work
[6] = small intestine, 25 mg/kg/day p.o. 3 days

AUC compared with RIF ([1]; mice, 10 mg/kg i.v.): -low | T1/2 compared with RIF ([1]; mouse, in vivo, iv, 10 mg/kg): ultra-short | Cmax ([1]; mouse, serum, mice, single oral dose 10 mg/kg, read-out: Cmax of serum): 0.04 µM | concentration in the intestinal tract (intestinal content) ([2]; 10 mg/kg single dose p.o.): up to 150 ug/g | concentration in the intestinal tract (intestinal content), molar ([2]; 10 mg/kg single dose p.o.): about 200 μM | intestinal tract concentration compared with RIF [2]: significantly higher | intestinal tract concentration compared with RIF ([2]; listed as Rifaximin): highly concentrated | concentration in the small intestine (content) ([2]; single oral dose 10 mg/kg): ~160 µg/g | time the small intestine concentration lasted following administration ([2]; single oral dose 10 mg/kg): 9 h | effect on hepatic PXR target genes ([3]; liver, oral treatment): no significant effect | Intestinal CYP3A11 expression [3, 6]: no significant change | Intestinal GSTA1 mRNA increase [3, 6]: 74% | Intestinal OATP2 mRNA [3, 6]: no significant induction | intestinal MRP2 mRNA [3, 6]: no change | change in luciferase activity in the presence of CAR (CAR): no significant change | change in luciferase activity in the presence of FXR (FXR): no significant change | Tmax of 1′-OH-MDZ in RIFax pretreated mice vs control group (CYP3A): significantly shorter
SMILES: COC1/C=C/OC2(C)Oc3c(C)c(O)c4c(O)c(c5c(nc6cc(C)ccn65)c4c3C2=O)NC(=O)/C(C)=C\C=C\C(C)C(O)C(C)C(O)C(C)C(OC(C)=O)C1C (centres unmarked) [RIFax, 4-Deoxy-4′-methylpyrido[1′,2′-1,2]imidazo[5,4-c]rifamycin SV]
CYP3A4 in a human hepatocyte model (CYP3A4 [4]): induction | effect on intestinal or hepatic CYP3A4 (CYP3A4 [5]): no significant effect | effect on the pharmacokinetics of MDZ and of ethinyl estradiol and norgestimate (CYP3A4 [5]): did not alter
